Assay results reported in ChEMBL document CHEMBL1149507, “Synthesis, structure, and bioactivity of N'-substituted benzylidene-3,4,5-trimethoxybenzohydrazide and 3-acetyl-2-substituted phenyl-5-(3,4,5-trimethoxyphenyl)-2,3-dihydro-1,3,4-oxadiazole derivatives” (Bioorg Med Chem Lett, 2006).

Legend:
[1] = tested on: PC-3; test: Antiproliferative activity against human PC3 cell line at 5 uM by MTT assay; format: functional
[2] = tested on: BGC-823; test: Antiproliferative activity against human BGC823 cell line at 5 uM by MTT assay; format: functional
[3] = tested on: BGC-823; test: Antiproliferative activity against human BGC823 cell line at 1 uM by MTT assay; format: functional
[4] = tested on: Bcap37; test: Antiproliferative activity against human Bcap37 cell line at 5 uM by MTT assay; format: functional
[5] = tested on: PC-3; test: Antiproliferative activity against human PC3 cell line at 1 uM by MTT assay; format: functional
[6] = tested on: Bcap37; test: Antiproliferative activity against human Bcap37 cell line at 1 uM by MTT assay; format: functional
[7] = tested on: PC-3; test: Antiproliferative activity against human PC3 cell line by MTT assay; format: functional, cell-based

| Structure (SMILES) | inhibition at 5 µM [1] | inhibition at 5 µM [2] | inhibition at 1 µM [3] | inhibition at 5 µM [4] | inhibition at 1 µM [5] | inhibition at 1 µM [6] | IC50 [7] |
| --- | --- | --- | --- | --- | --- | --- | --- |
| COc1cc(C2=NN(C(C)=O)C(c3ccc(Cl)c([N+](=O)[O-])c3)O2)cc(OC)c1OC (stereo not given) | 61.4% | 0% | -2.3% | 1% | 43.3% | -2.9% |  |
| COc1ccc(OC)c(C2OC(c3cc(OC)c(OC)c(OC)c3)=NN2C(C)=O)c1 (stereo not given) | 43.2% | 18.2% | 0.4% | 2.3% | 37.2% | -3.8% |  |
| COc1cc(C(=O)N/N=C/c2c(Cl)cccc2Cl)cc(OC)c1OC | 52.1% | 27.8% | 0.9% | 2.9% | 43% | -7.2% |  |
| COc1cc(C(=O)N/N=C/c2ccc(Cl)c([N+](=O)[O-])c2)cc(OC)c1OC | 42.3% | 2.3% | -5.8% | 9.6% | 32.1% | -4.4% |  |
| COc1cc(C2=NN(C(C)=O)C(c3ccccc3C(F)(F)F)O2)cc(OC)c1OC (stereo not given) | 15.2% | 34.8% | 31.8% | 16.2% | -11% | -1.2% |  |
| COc1cc(C2=NN(C(C)=O)C(c3cc(OC)c(OC)c(OC)c3)O2)cc(OC)c1OC (stereo not given) | 0.1% | -1.4% | -1.8% | 5.4% | -1.8% | 5.1% |  |
| COc1cc(C2=NN(C(C)=O)C(c3cccc(F)c3)O2)cc(OC)c1OC (stereo not given) | 43.5% | 37.7% | 14.7% | 23.8% | 16.5% | 14% |  |
| COc1cc(C(=O)N/N=C/c2ccc(F)cc2)cc(OC)c1OC | 82.8% | 61.1% | 50.9% | 55.5% | 76% | 50.2% |  |
| COc1cccc(/C=N/NC(=O)c2cc(OC)c(OC)c(OC)c2)c1OC | 67% | 14.2% | -0.1% | 12.3% | 53.2% | -2.3% |  |
| COc1cc(C(=O)N/N=C/c2ccc(C(F)(F)F)cc2)cc(OC)c1OC | 61.6% | 56.3% | 47.4% | 65.6% | 59.9% | 61.8% |  |
| COc1cc(C(=O)N/N=C/c2ccccc2C(F)(F)F)cc(OC)c1OC | 52.9% | 35.6% | 22.1% | 80% | 45% | 56.8% |  |
| COc1cc(C(=O)N/N=C/c2ccccc2F)cc(OC)c1OC | 81.8% | 76.5% | 51.6% | 81.8% | 70.6% | 58.9% |  |
| COc1cc(C2=NN(C(C)=O)C(c3ccccc3F)O2)cc(OC)c1OC (stereo not given) | 31.6% | 32.8% | 29.6% | -2% | 13.5% | -1.5% |  |
| COc1cc(C2=NN(C(C)=O)C(c3cc(Cl)cc(Cl)c3)O2)cc(OC)c1OC (stereo not given) | 93.9% | 6.6% | 0% | 1.3% | 52.7% | -1.1% | 1.7 µM |
| COc1cc(C2=NN(C(C)=O)C(c3ccc(F)cc3)O2)cc(OC)c1OC (stereo not given) | 0.1% | 13.3% | -0.4% | -0.1% | 0% | -1.4% |  |
| COc1cc(C(=O)N/N=C/c2cccc(F)c2)cc(OC)c1OC | 64.1% | 44.8% | 13.6% | 49% | 53.5% | 38% |  |
| COc1cc(C2=NN(C(C)=O)C(c3cccc(OC)c3OC)O2)cc(OC)c1OC (stereo not given) | 58.2% | 17.5% | 3.8% | 2.8% | 35% | 0.1% |  |
| COc1ccc(OC)c(/C=N/NC(=O)c2cc(OC)c(OC)c(OC)c2)c1 | 51.7% | 10.1% | 0.1% | 0% | 30.9% | 0% |  |
| COc1cc(C(=O)N/N=C/c2ccc(F)c(F)c2)cc(OC)c1OC | 43.7% | 51.9% | 33.1% | 68.2% | 35.1% | 58.5% |  |
| COc1ccc(/C=N/NC(=O)c2cc(OC)c(OC)c(OC)c2)c(OC)c1 | 22.2% | 3.6% | -6.9% | -0.1% | 10% | -3% |  |
| COc1cc(C2=NN(C(C)=O)C(c3c(Cl)cccc3Cl)O2)cc(OC)c1OC (stereo not given) | -2.2% | 15.9% | -1.4% | 45.8% | 5.1% | 9.3% |  |
| COc1cc(C2=NN(C(C)=O)C(c3ccc(F)c(F)c3)O2)cc(OC)c1OC (stereo not given) | 46.9% | 21.6% | 18.3% | 2.3% | 35.5% | -1.3% |  |
| COc1cc(C(=O)N/N=C/c2cccc(C(F)(F)F)c2)cc(OC)c1OC | 79.8% | 33.8% | 17.7% | 15.5% | 51% | 8.3% |  |
| COc1cc(C2=NN(C(C)=O)C(c3cccc(C(F)(F)F)c3)O2)cc(OC)c1OC (stereo not given) | 43.6% | 41.1% | 27.9% | 35.5% | 30.1% | 10.1% |  |
| COc1cc(/C=N/NC(=O)c2cc(OC)c(OC)c(OC)c2)cc(OC)c1OC | 48.3% | 22.9% | -5% | 13.6% | 8.5% | 11.8% |  |
| COc1cc(C(=O)N/N=C/c2ccc(Cl)c(Cl)c2)cc(OC)c1OC | 31.6% | 32.7% | 29.6% | 0.6% | 13.5% | 0.1% |  |
| COc1cc(C2=NN(C(C)=O)C(c3ccc(Cl)c(Cl)c3)O2)cc(OC)c1OC (stereo not given) | 26.1% | 3.1% | -0.8% | 0% | 28.1% | -3.2% |  |
| COc1cc(C2=NN(C(C)=O)C(c3ccc(C(F)(F)F)cc3)O2)cc(OC)c1OC (stereo not given) | -0.7% | 3.4% | 4.2% | 14.2% | -11% | -3.5% |  |
| COc1cc(C(=O)N/N=C/c2cc(Cl)cc(Cl)c2)cc(OC)c1OC | 46.3% | 9.2% | -7.5% | 3.6% | 22.1% | -5.4% |  |
